In US8846669B2, “Oxazolidinone derivative and medical composition containing same” (Legochem Biosciences, Inc., priority 2011, dated 2014):
Values after ≈ are worked out from the molar mass of the structure shown. Read-outs that look alike come from different tables or passages of the source.

Tests used:
Assay in all cases: In vitro antibacterial activity, broth microdilution MIC90
Format in all cases: cell-based
[1] = system: Vancomycin Resistant Enterococcus faecium; settings: strain 9, E. faecium VanA
Outline: (§1)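 Antibacterial testing used the CLSI M7-A5 dilution method for aerobic bacteria across twelve strains, including resistant staphylococcal and enterococcal isolates. Final drug levels of 0.063 μg/mL up to 128 μg/mL were tested; linezolid was included for comparison.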

[2] = system: Enterococcus faecalis; settings: strain 5, E. faecalis
Outline: as §1

[3] = system: Methicillin Resistant Staphylococcus epidermidis; settings: strain 4, S. epidermidis MR
Outline: as §1

[4] = system: Methicillin Resistant Staphylococcus aureus; settings: strain 2, S. aureus MR
Outline: as §1

[5] = system: Linezolid and Vancomycin Resistant Enterococcus faecium (strain 10); settings: strain 10, E. faecium VanA LR
Outline: as §1

[6] = system: Linezolid and Vancomycin Resistant Enterococcus faecium (strain 11); settings: strain 11, E. faecium VanA LR
Outline: as §1

[7] = system: Staphylococcus aureus; settings: strain 1, S. aureus
Outline: as §1

[8] = system: Linezolid and Vancomycin Resistant Enterococcus faecalis; settings: strain 7, E. faecalis VanA LR
Outline: as §1

[9] = system: Enterococcus faecium; settings: strain 8, E. faecium
Outline: as §1

[10] = system: Moraxella catarrhalis; settings: strain 12, M. catarrhalis
Outline: as §1

[11] = system: Staphylococcus epidermidis; settings: strain 3, S. epidermidis
Outline: as §1

[12] = system: Vancomycin Resistant Enterococcus faecalis; settings: strain 6, E. faecalis VanA
Outline: as §1

[13] = Enterococcus faecium, read-out: MIC90
[14] = Enterococcus faecalis, read-out: MIC90
[15] = Staphylococcus epidermidis, read-out: MIC90
[16] = Staphylococcus aureus, read-out: MIC90
[17] = Moraxella catarrhalis, read-out: MIC90

SMILES	MIC90 [1, 13] [µg/mL]	MIC90 [2, 14] [µg/mL]	MIC90 [3, 15] [µg/mL]	MIC90 [4, 16] [µg/mL]	MIC90 [5, 13] [µg/mL]	MIC90 [6, 13] [µg/mL]	MIC90 [7, 16] [µg/mL]	MIC90 [8, 14] [µg/mL]	MIC90 [9, 13] [µg/mL]	MIC90 [10, 17] [µg/mL]	MIC90 [11, 15] [µg/mL]	MIC90 [12, 14] [µg/mL]	also measured
COC(=O)NC[C@H]1CN(c2ccc(-c3ccc(N4CCON=C4C)nc3)c(F)c2)C(=O)O1 [Compound 63]	2 (≈ 4.51 µM)	2 (≈ 4.51 µM)	4 (≈ 9.02 µM)	2 (≈ 4.51 µM)	16 (≈ 36.1 µM)	16 (≈ 36.1 µM)	2 (≈ 4.51 µM)	16 (≈ 36.1 µM)	1 (≈ 2.26 µM)	8 (≈ 18 µM)	1 (≈ 2.26 µM)	2 (≈ 4.51 µM)	–
CC(=O)NC[C@H]1CN(c2ccc(-c3ccc(C4=NOCCN4)nc3)c(F)c2)C(=O)O1 [Compound 64]	0.25 (≈ 0.605 µM)	0.25 (≈ 0.605 µM)	0.5 (≈ 1.21 µM)	0.5 (≈ 1.21 µM)	1 (≈ 2.42 µM)	2 (≈ 4.84 µM)	0.25 (≈ 0.605 µM)	1 (≈ 2.42 µM)	0.25 (≈ 0.605 µM)	2 (≈ 4.84 µM)	0.25 (≈ 0.605 µM)	0.25 (≈ 0.605 µM)	–
COC(=O)NC[C@H]1CN(c2ccc(-c3ccc(C4=NOCCN4)nc3)c(F)c2)C(=O)O1 [Compound 65]	0.5 (≈ 1.16 µM)	0.5 (≈ 1.16 µM)	1 (≈ 2.33 µM)	0.5 (≈ 1.16 µM)	4 (≈ 9.32 µM)	4 (≈ 9.32 µM)	0.5 (≈ 1.16 µM)	4 (≈ 9.32 µM)	0.5 (≈ 1.16 µM)	2 (≈ 4.66 µM)	0.5 (≈ 1.16 µM)	0.5 (≈ 1.16 µM)	–
O=C1O[C@@H](CNc2ccon2)CN1c1ccc(-c2ccc(C3=NOCCN3)nc2)c(F)c1 [Compound 67]	–	–	–	–	–	–	–	–	–	–	–	–	MIC90 [1]: 0.5 µg/mL (≈ 1.14 µM); MIC90 [2]: 0.5 µg/mL (≈ 1.14 µM); MIC90 [3]: 0.5 µg/mL (≈ 1.14 µM); MIC90 [4]: 0.5 µg/mL (≈ 1.14 µM); MIC90 [5]: 2 µg/mL (≈ 4.56 µM); MIC90 [6]: 2 µg/mL (≈ 4.56 µM); MIC90 [7]: 0.25 µg/mL (≈ 0.57 µM); MIC90 [8]: 2 µg/mL (≈ 4.56 µM); MIC90 [9]: 0.25 µg/mL (≈ 0.57 µM); MIC90 [10]: 1 µg/mL (≈ 2.28 µM); MIC90 [11]: 0.25 µg/mL (≈ 0.57 µM); MIC90 [12]: 0.5 µg/mL (≈ 1.14 µM)
O=C1O[C@@H](COc2ccon2)CN1c1ccc(-c2ccc(C3=NOCCN3)nc2)c(F)c1 [Compound 68]	–	–	–	–	–	–	–	–	–	–	–	–	MIC90 [1]: 1 µg/mL (≈ 2.28 µM); MIC90 [2]: 1 µg/mL (≈ 2.28 µM); MIC90 [3]: 2 µg/mL (≈ 4.55 µM); MIC90 [4]: 1 µg/mL (≈ 2.28 µM); MIC90 [5]: >128 µg/mL; MIC90 [6]: >128 µg/mL; MIC90 [7]: 0.5 µg/mL (≈ 1.14 µM); MIC90 [8]: >128 µg/mL; MIC90 [9]: 0.25 µg/mL (≈ 0.569 µM); MIC90 [10]: >128 µg/mL; MIC90 [11]: 1 µg/mL (≈ 2.28 µM); MIC90 [12]: 2 µg/mL (≈ 4.55 µM)

Second part, led by results:

MIC90 [1, 13] [µg/mL]	MIC90 [2, 14] [µg/mL]	MIC90 [3, 15] [µg/mL]	MIC90 [4, 16] [µg/mL]	MIC90 [5, 13] [µg/mL]	MIC90 [6, 13] [µg/mL]	MIC90 [7, 16] [µg/mL]	MIC90 [8, 14] [µg/mL]	MIC90 [9, 13] [µg/mL]	MIC90 [10, 17] [µg/mL]	MIC90 [11, 15] [µg/mL]	MIC90 [12, 14] [µg/mL]	SMILES	also measured
0.25 (≈ 0.59 µM)	0.25 (≈ 0.59 µM)	0.5 (≈ 1.18 µM)	0.5 (≈ 1.18 µM)	1 (≈ 2.36 µM)	2 (≈ 4.72 µM)	0.125 (≈ 0.295 µM)	1 (≈ 2.36 µM)	0.125 (≈ 0.295 µM)	1 (≈ 2.36 µM)	0.25 (≈ 0.59 µM)	0.25 (≈ 0.59 µM)	O=C1O[C@@H](Cn2ccnn2)CN1c1ccc(-c2ccc(C3=NOCCN3)nc2)c(F)c1 [Compound 66]	–
1 (≈ 2.34 µM)	1 (≈ 2.34 µM)	2 (≈ 4.68 µM)	2 (≈ 4.68 µM)	4 (≈ 9.36 µM)	4 (≈ 9.36 µM)	0.5 (≈ 1.17 µM)	2 (≈ 4.68 µM)	1 (≈ 2.34 µM)	8 (≈ 18.7 µM)	0.5 (≈ 1.17 µM)	1 (≈ 2.34 µM)	CC(=O)NC[C@H]1CN(c2ccc(-c3ccc(C4=NOCCN4C)nc3)c(F)c2)C(=O)O1 [Compound 69]	–
1 (≈ 2.26 µM)	2 (≈ 4.51 µM)	4 (≈ 9.02 µM)	2 (≈ 4.51 µM)	8 (≈ 18 µM)	8 (≈ 18 µM)	1 (≈ 2.26 µM)	8 (≈ 18 µM)	1 (≈ 2.26 µM)	4 (≈ 9.02 µM)	1 (≈ 2.26 µM)	2 (≈ 4.51 µM)	COC(=O)NC[C@H]1CN(c2ccc(-c3ccc(C4=NOCCN4C)nc3)c(F)c2)C(=O)O1 [Compound 70]	–
2 (≈ 5.18 µM)	4 (≈ 10.4 µM)	4 (≈ 10.4 µM)	4 (≈ 10.4 µM)	8 (≈ 20.7 µM)	16 (≈ 41.4 µM)	2 (≈ 5.18 µM)	16 (≈ 41.4 µM)	2 (≈ 5.18 µM)	8 (≈ 20.7 µM)	2 (≈ 5.18 µM)	2 (≈ 5.18 µM)	CN1CCON=C1c1ccc(-c2ccc(N3C[C@H](CO)OC3=O)cc2F)cn1 [Compound 71]	–
2 (≈ 5.93 µM)	2 (≈ 5.93 µM)	2 (≈ 5.93 µM)	2 (≈ 5.93 µM)	32 (≈ 94.9 µM)	64 (≈ 190 µM)	1 (≈ 2.96 µM)	32 (≈ 94.9 µM)	1 (≈ 2.96 µM)	8 (≈ 23.7 µM)	1 (≈ 2.96 µM)	2 (≈ 5.93 µM)	CC(=O)NC[C@H]1CN(c2ccc(N3CCOCC3)c(F)c2)C(=O)O1 [LZD, Linezolid, reference compound]	–
